Structures can show the parent of a compound that is named as a salt.
Columns and labels:
[1] = test system: Apomorphine-induced emesis; assay: Apomorphine-induced emesis in the dog; details: for APOMORPHINE-INDUCED VOMITING IN THE DOG % Protected animals: 1 mg/kg i.v.
[2] = test system: CuSO4-induced emesis; assay: CuSO4-induced emesis in the dog; assay type: in vivo; details: for C4 SO4 - INDUCED VOMITING No EMETIC EPISODES IN THE DOG (% Inh.): 1 mg/kg i.v.
Text: (Kayashima, N., Tanaka, M., Iwasaki, M. & Hayama, T. Japan J. Pharmacol. (1978)28: 775-781).

[3] = test system: gastric emptying; assay: Stomach emptying (gastric emptying of glass beads) in the rat; assay type: in vivo; design: unit not given here
Text: (5) Stomach emptying in the rat, administering compounds by oral route. (Jacoby, H. I., and Brodie, D. A. Gastroenterol. 52, 676-684, 1967).
All of them show a good prokinetic activity in the gastric emptying of glass beads in the rat.

[4] = biological target: T1, 5HT3 receptors located in vagal afferent fibres (Rattus norvegicus, UniProt P35563); assay: Inhibition of the Bezold-Jarisch reflex in the anaesthetized rat; assay type: in vivo; details: iv, read-out: BEZOLD-JARISCH REFLEX IN THE RAT (ID50; μg/kg i.v.)
T1 construct: 5HT3 receptors located in vagal afferent fibres; from tissue; host or cells: vagal afferent fibres of the anaesthetized rat (in vivo)
T1 sequence (P35563 24-483): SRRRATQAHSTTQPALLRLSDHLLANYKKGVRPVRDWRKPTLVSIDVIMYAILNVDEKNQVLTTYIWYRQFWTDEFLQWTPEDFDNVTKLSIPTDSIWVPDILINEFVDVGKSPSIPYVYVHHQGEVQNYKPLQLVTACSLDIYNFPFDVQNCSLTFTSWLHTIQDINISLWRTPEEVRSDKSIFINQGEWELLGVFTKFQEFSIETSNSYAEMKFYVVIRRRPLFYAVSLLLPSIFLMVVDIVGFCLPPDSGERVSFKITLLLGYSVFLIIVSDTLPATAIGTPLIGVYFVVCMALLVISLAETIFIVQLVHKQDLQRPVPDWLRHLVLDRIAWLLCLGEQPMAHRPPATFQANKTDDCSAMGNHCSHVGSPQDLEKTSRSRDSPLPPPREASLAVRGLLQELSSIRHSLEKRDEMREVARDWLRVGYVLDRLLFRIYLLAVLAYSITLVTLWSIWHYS
Text: (1) Stimulation by 5-HT of 5HT3 receptors located in vagal afferent fibres produces a fall in heart rate and blood pressure in the anaesthetized rat (Bezold-Jarisch reflex).

[5] = test system: Cis-platinum induced emesis; assay: Cis-platinum induced emesis in the dog; assay type: in vivo
Text: (Gylys, J. A., Dora, K. M. & Buyniski J. P. Res. Comm. Chem. Pathol. Pharmacol. (1979)23: 61-68).

| Compound | APOMORPHINE-INDUCED VOMITING IN THE DOG % Protected animals [1] | C4 SO4 - INDUCED VOMITING No EMETIC EPISODES IN THE DOG (% Inh.) [2] | GASTRIC EMPTYING IN THE RAT [drawing 8] ([3]; 0.01 mg/kg p.o.) | GASTRIC EMPTYING IN THE RAT [drawing 8] ([3]; 1.0 mg/kg p.o.) | ED50 [4] | CISPLATIN-INDUCED VOMITING IN THE DOG (% inhibition) ([5]; 0.03 mg/kg i.v.) | CISPLATIN-INDUCED VOMITING IN THE DOG (% inhibition) ([5]; 0.1 mg/kg p.o.) | antiemetic activity in apomorphine-induced vomiting in the dog (in words) [1] | activity in CuSO4-induced vomiting in the dog (in words) [2] | CISPLATIN-INDUCED VOMITING IN THE DOG (% inhibition) ([5]; 1 mg/kg i.v.) | CISPLATIN-INDUCED VOMITING IN THE DOG (% inhibition) ([5]; 3 mg/kg p.o.) |
| --- | --- | --- | --- | --- | --- | --- | --- | --- | --- | --- | --- |
| Nc1cc(OCC2CC2)c(C(=O)NC2CN3CCC2CC3)cc1Cl (stereo not shown) [Compound 1, N-(1-azabicyclo[2.2.2]oct-3-yl)-2-cyclopropylmethoxy-4-amino-5-chlorobenzamide] | 0% | 40% | 55 | 85 | 0.56 µg/kg | 88% | 85% | – | – | – | – |
| COCCOc1cc(N)c(Cl)cc1C(=O)NC1CN2CCC1CC2 (stereo not shown) [Compound 11, N-(1-azabicyclo[2.2.2]oct-3-yl)-2-methoxyethoxy-4-amino-5-chlorobenzamide] | 0% | 24% | 60 | 68 | 0.42 µg/kg | 81% | 0% | – | – | – | – |
| CN1[C@@H]2CC[C@H]1C[C@H](NC(=O)c1cc(Cl)c(N)cc1OCC1CC1)C2 [Compound 16, N(8-methyl-8-azabicyclo[3.2.1]oct3β-yl)2-cyclopropylmethoxy-4-amino-5-chlorobenzamide] | 0% | 45% | 32 | 71 | 2.6 µg/kg | 53% | 61% | – | – | – | – |
| COCCOc1cc(N)c(Cl)cc1C(=O)N[C@@H]1C[C@H]2CC[C@@H](C1)N2C [Compound 23, N-(8-methyl-8-azabicyclo[3.2.1]oct-3β-yl)-2-(2-methoxyethoxy)-4-amino-5-chlorobenzamide acid fumarate] | 0% | 30% | 13 | 61 | 0.63 µg/kg | 31% | 53% | – | – | – | – |
| CCN(CC)CCNC(=O)c1cc(Cl)c(N)cc1OC [Metoclopramide, N-[2-(diethylamino)ethyl]-2-methoxy-4-amino-5-chlorobenzamide, reference compound] | 100% | 60% | 0 | 42 | 330 µg/kg | – | – | very active | decreases the number of emetic episodes | 69% | 85% |
| COc1cc(N)c(Cl)cc1C(=O)NC1CN2CCC1CC2 (stereo not shown) [Zacopride, N-(1-azabicyclo[2.2.2]oct-3-yl)-2-methoxy-4-amino-5-chlorobenzamide, reference compound] | 0% | 0% | 51 | 77 | 0.21 µg/kg | 92% | 88% | lack antiemetic activity | totally inactive | – | – |

Reference: patent publication US4937236A, “Anxiolytic N-substituted benzamides” (priority 1987, dated 1990)
